Reference: patent publication US20080171783A1, “COMPOSITIONS AND METHODS FOR TREATING HYPERPROLIFERATIVE DISEASE” (Migenix Inc., priority 2006, published 2008)

Biological target: T1, human polymerase alpha (Homo sapiens, UniProt P09884)
T1 construct: purchased Replizyme Ltd (Heslington, York, UK)
T1 sequence (P09884 1-1462): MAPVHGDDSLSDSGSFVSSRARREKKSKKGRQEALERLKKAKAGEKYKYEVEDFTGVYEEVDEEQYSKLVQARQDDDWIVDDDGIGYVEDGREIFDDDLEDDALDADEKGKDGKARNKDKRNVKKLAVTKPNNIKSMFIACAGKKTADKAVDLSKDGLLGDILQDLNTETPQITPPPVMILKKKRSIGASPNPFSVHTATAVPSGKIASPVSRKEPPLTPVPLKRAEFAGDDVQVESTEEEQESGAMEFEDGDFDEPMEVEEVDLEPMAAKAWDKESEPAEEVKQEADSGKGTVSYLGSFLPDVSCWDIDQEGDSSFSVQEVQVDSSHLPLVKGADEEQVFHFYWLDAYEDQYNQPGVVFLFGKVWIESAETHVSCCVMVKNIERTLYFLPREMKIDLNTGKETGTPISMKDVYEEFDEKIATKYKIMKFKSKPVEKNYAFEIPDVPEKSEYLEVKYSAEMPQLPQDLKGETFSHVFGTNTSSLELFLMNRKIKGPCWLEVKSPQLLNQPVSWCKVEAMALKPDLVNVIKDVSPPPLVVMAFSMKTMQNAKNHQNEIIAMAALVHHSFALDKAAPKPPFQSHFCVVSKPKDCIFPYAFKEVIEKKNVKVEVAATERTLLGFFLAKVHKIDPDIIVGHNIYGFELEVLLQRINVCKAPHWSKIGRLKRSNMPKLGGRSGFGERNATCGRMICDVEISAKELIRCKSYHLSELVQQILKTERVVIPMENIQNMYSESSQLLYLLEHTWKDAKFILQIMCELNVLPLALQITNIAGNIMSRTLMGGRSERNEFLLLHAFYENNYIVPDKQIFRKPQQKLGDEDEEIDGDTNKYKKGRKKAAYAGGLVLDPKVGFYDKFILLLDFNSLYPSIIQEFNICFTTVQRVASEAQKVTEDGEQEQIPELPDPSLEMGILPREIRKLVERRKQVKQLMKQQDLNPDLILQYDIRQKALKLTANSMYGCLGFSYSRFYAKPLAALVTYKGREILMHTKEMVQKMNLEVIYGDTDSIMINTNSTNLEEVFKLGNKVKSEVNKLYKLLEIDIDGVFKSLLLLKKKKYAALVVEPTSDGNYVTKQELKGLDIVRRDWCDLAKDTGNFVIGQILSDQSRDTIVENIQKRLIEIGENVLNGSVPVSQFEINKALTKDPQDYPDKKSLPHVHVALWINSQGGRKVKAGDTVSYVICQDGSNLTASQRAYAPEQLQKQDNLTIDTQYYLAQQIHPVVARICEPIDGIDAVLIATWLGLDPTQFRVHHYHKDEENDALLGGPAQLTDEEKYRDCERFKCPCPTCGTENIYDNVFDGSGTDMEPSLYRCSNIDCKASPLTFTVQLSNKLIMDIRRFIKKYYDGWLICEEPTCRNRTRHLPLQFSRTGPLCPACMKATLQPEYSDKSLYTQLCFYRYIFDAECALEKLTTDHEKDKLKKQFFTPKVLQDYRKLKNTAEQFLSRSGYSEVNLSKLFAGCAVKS
Experiment: Human polymerase alpha inhibition (Replizyme kit)
Format: biochemical
Conditions: dose response
Method: Calf polymerase alpha and human polymerase alpha investigations were performed with a kit available from Replizyme Ltd (Heslington, York, UK).

IC50: 10 µM
Structure (SMILES): Cc1cc2cc(NC(=O)[C@H](CCCNC(=O)CN)NC(=O)Nc3ccc4c(c3)Cc3ccccc3-4)ccc2[nH]1 [Compound 297, (S)-5-(2-AMINO-ACETYLAMINO)-2-[3-(9H-FLUOREN-2-YL)-UREIDO]-PENTANOIC ACID (2-METHYL-1H-INDOL-5-YL)-AMIDE]
